Results: patent US20120328696A1, “ANTI-PARKINSONIAN COMPOUND ACETYLSALICYLIC ACID MALTOL ESTER” (Hutecs Korea Pharmaceutical Co., Ltd., priority 2008, published 2012)

Assays:
Type in all cases: in vivo
[1] = test system: PKCδ; assay: Striatal PKCδ expression after MA (western blot); details: MA 8 mg/kg i.p. x4, GPx-1 (+/+) and (−/−) mice; for effect on MA-induced striatal PKCδ expression: p.o., AME 25 or 50, EBS 10 or 20, rottlerin 10 or 20 mg/kg
Protocol: (§1) The mice received four times of MA (8 mg/kg, ip) or saline as a 2 hr-time interval. Chemicals (AME, EBS, and PKC inhibitors) were administrated for 5 consecutive days (twice daily), and were given 2 times at 4 hr and 30 min before the first MA injection as shown in the experimental schedule. Animals were sacrificed at 4 hrs and 3 days after the final MA administration.
Tissues were homogenized in lysis buffer, containing 200 mM Tris HCl (pH 6.8), 1% SDS, 5 mM EGTA (ethylene glycol tetraacetic acid), 5 mM EDTA (ethylenediaminetetraacetic acid), 10% glycerol, 1× phosphatase inhibitor cocktail I, 1× protease inhibitor cocktail. Lysate was centrifuged at 12,000×g for 30 min and supernatant fraction was used for Western blot analysis. […] And then, membranes were incubated with HRP-conjugated secondary anti-rabbit IgG (1:1000, GE healthcare, Piscataway, N.J., USA), anti-mouse IgG (1:1000, Sigma) or anti-goat IgG (1:1000, Sigma) for 2 h. Subsequent visualization was performed using enhanced chemiluminescence system (ECL Plus®, GE healthcare).

[2] = test system: cyclooxygenase (COX)-2; assay: COX-2 expression after MA (western blot); details: p.o.; AME 50, EBS 20, rottlerin 20 mg/kg; MA 8 mg/kg i.p. x4; GPx-1 (+/+) and (−/−) mice
Protocol: as §1
(§2) The western blot assays was performed as described previously (Kim et al., 2003). Tissues were homogenized in lysis buffer, containing 200 mM Tris HCl (pH 6.8), 1% SDS, 5 mM EGTA (ethylene glycol tetraacetic acid), 5 mM EDTA (ethylenediaminetetraacetic acid), 10% glycerol, 1× phosphatase inhibitor cocktail I, 1× protease inhibitor cocktail. Lysate was centrifuged at 12,000×g for 30 min and supernatant fraction was used for Western blot analysis. Proteins (20-50 ug/lane) were separated by 6%, 8%, 10% or 15% sodium dodecyl sulfate-polyacrylamide gel electrophoresis and transferred onto the PVDF membranes. Following transfer, the membranes were preincubated with 5% non-fat milk and incubated overnight at 4° C. with primary antibody against β-actin (1:50000, Sigma, St. Louis, Mo., USA), TH (1:5000, Chemicon), TH phosphor-Ser 19 (1:1000, Chemicon,), TH phosphor-Ser 31 (1:500, Chemicon), TH phosphor-Ser 40 (1:500, Chemicon), F4/80 (1:500, Serotec), GPx1 (1:2500, AbFrontier), PKC (1:5000, Santa Cruz biotechnology, Santa Cruz, Calif., USA), p53 (1:5000, Cell signaling, Beverly, Mass., USA), MDM2 (1:1000, BD Pharmingen, San Jose, Calif., USA), MDM2 phospho-Ser 166 (1:1000, cell signaling), BDNF (1:500, Chemicon), GDNF (1:250, Santa Cruz), COX-2 (1:2000, Cayman, Ann Arbor, MC, USA), IL-6 (1:2000, Abcam, Cambridge, Mass., USA), TNF-a (1:1000, R&D Systems, Mckinley place NE, NM, USA), IFN-γ (1:500, Chemicon) or Iba-1 (1:500, Wako, Osaka, Japan). And then, membranes were incubated with HRP-conjugated secondary anti-rabbit IgG (1:1000, GE healthcare, Piscataway, N.J., USA), anti-mouse IgG (1:1000, Sigma) or anti-goat IgG (1:1000, Sigma) for 2 h. […]

[3] = test system: F4/80 (a marker of microgliosis); assay: F4/80 expression after MA (western blot); details: p.o.; AME 50, EBS 20, rottlerin 20 mg/kg; MA 8 mg/kg i.p. x4; GPx-1 (+/+) and (−/−) mice
Protocol: as §1, §2

[4] = test system: Iba-1 (a marker of microgliosis); assay: Iba-1 expression after MA (western blot); details: p.o.; AME 50, EBS 20, rottlerin 20 mg/kg; MA 8 mg/kg i.p. x4; GPx-1 (+/+) and (−/−) mice
Protocol: as §1, §2

[5] = test system: brain-derived neurotrophic factor (BDNF); assay: Striatal BDNF expression after MA (western blot); details: p.o.; AME 50, EBS 20, rottlerin 20 mg/kg; MA 8 mg/kg i.p. x4; GPx-1 (+/+) and (−/−) mice
Protocol: as §1, §2

[6] = test system: protein carbonyl; assay: Striatal protein oxidation (protein carbonyl) after MA; details: biochemical assay and slot blot; striatum, 3 days after final MA; p.o.; AME 50, EBS 20, rottlerin 20 mg/kg; GPx-1 (+/+) and (−/−) mice
Protocol: as §1
The amount of oxidized proteins was measured using the Oxyblot kit (Chemicon International, CA) according to the instruction provided by manufacturer. Briefly, the protein carbonyl content was measured by first forming labeled protein hydrazone derivatives using 2,4-dinitrophenylhydrazide (DNP). The DNP-derivatized protein samples were transferred onto PVDF membrane by slot blot apparatus (GE Healthcare). Blots were then incubated with primary antibody specific to the DNP moiety, followed by incubation with a HRP-conjugated secondary antibody. Subsequent visualization was performed using enhanced chemiluminescence system (ECL Plus®, GE healthcare) (Gemma et al., 2004).
The extent of protein carbonyl oxidation in the striatum was assessed by measuring the content of protein carbonyl groups, which was determined spectrophotometrically with the 2,4-dinitrophenyl-hydrazine (DNPH)-labeling procedure (Kim et al., 1997b, 2000b, 2002) as described by Oliver et al. (1987). The results were expressed as nmol of DNPH incorporated/mg protein based on the extinction coefficient for aliphatic hydrazones of 21 mM^−1 cm^−1. Protein was measured using the BCA protein assay reagent (Pierce, Rockford, Ill., USA).

[7] = test system: C57BL/6 mice; assay: Locomotor activity after MPTP; details: AME 25 mg/kg p.o.; MPTP 25 mg/kg i.p. once a day for 7 days; 3 days after final MPTP
Protocol: AME (25 mg/kg, p.o) administration was started 4 days (twice daily) before the first injection of MPTP and continued for 7 consecutive days (once a day). MPTP was injected (25 mg/kg, i.p) once a day 1 h after AME treatment for consecutive 7 days.
Locomotor activity measured for 30 min 3 days after the last MPTP administration using an automated video-tracking system (Noldus Information Technology, Wagenin, The Netherlands). Eight test boxes (40×40×30 cm high) were operated simultaneously by an IBM computer. Animals were studied individually during locomotion in each test box, where they were adapted for 5 min before starting the experiment. […] The distance traveled in cm by the animals in horizontal locomotor activity was analyzed. Data were collected and analyzed between 09:00 and 17:00 h (Kim et al., 2001).

| SMILES | effect on MA-induced striatal PKCδ expression [1] | effect on MA-induced increase in COX-2 expression [2] | effect on MA-induced increase in F4/80 expression [3] | effect on MA-induced increase in Iba-1 expression [4] | effect on MA-induced reduction in BDNF expression [5] | effect on MA-induced increase in protein oxidation [6] | effect on MA-induced increase in striatal PKCδ expression ([1]; intra-striatal) | effect on MPTP-induced hypolocomotor activity [7] |
| --- | --- | --- | --- | --- | --- | --- | --- | --- |
| O=c1c2ccccc2[se]n1-c1ccccc1 [EBS, 2-phenyl-1,2-benzisoselenazol-3(2H)-one] | significantly reduced MA-induced the PKCδ- and cleaved PKCδ-expressions in a dose-related manner | significantly and consistently attenuating effects | significantly and consistently attenuating effects | significantly and consistently attenuating effects | significantly attenuated these reductions | significantly attenuated | – | – |
| CC(=O)c1c(O)c(C)c(O)c(Cc2c(O)c3c(c(C(=O)/C=C/c4ccccc4)c2O)OC(C)(C)C=C3)c1O [rottlerin] | significantly reduced MA-induced the PKCδ- and cleaved PKCδ-expressions in a dose-related manner | significantly and consistently attenuating effects | significantly and consistently attenuating effects | significantly and consistently attenuating effects | significantly attenuated these reductions | significantly attenuated | attenuated the MA-induced increases in PKCδ expressions in a dose-dependent manner | – |
| CC(=O)Oc1ccccc1C(=O)Oc1c(C)occc1=O [AME, 3-(2-methyl-4-pyronyl)-2-acetyloxybenzoate] | significantly reduced MA-induced the PKCδ- and cleaved PKCδ-expressions in a dose-related manner | significantly and consistently attenuating effects | significantly and consistently attenuating effects | significantly and consistently attenuating effects | significantly attenuated these reductions | significantly attenuated | – | significant attenuated |
